Data: US7008636B2, “2,3,5-substituted biphenyls useful in the treatment of insulin resistance and hyperglycemia” (Wyeth, priority 1998, dated 2006)

SMILES | melting point
O=C(O)COc1c(-c2ccccc2)cc(C(=O)NCCCCCCCCc2ccccc2)cc1-c1cc(Cl)cc(Cl)c1 [Example 27, [3,5-Dichloro-5′-(8-phenyl-octylcarbamoyl)-[1,1′;3′,1″]terphenyl-2′-yloxy]-acetic acid] | 82 to 83.1 °C
CCCCCCCCCCCCNC(=O)c1cc(-c2cccc(Cl)c2)c(OCC(=O)O)c(-c2cccc(Cl)c2)c1 [Example 33, (3,3″-Dichloro-5′-dodecylcarbamoyl-[1,1′;3′,1″]terphenyl-2′-yloxy)-acetic acid] | 151 to 156 °C
CCCCCCCCCCCCNC(=O)c1cc(Br)c(OCC(=O)O)c(-c2cccc(Cl)c2)c1 [Example 34, (3-Bromo-3′-chloro-5-dodecylcarbamoyl-biphenyl-2-yloxy)-acetic acid] | > 100 °C (dec.)
O=C(O)COc1c(-c2cccc(Cl)c2)cc(C(=O)NCCCCCCCCc2ccccc2)cc1-c1cccc(Cl)c1 [Example 35, [3,3″-Dichloro-5′-(8-phenyl-octylcarbamoyl)-[1,1′;3′,1″]terphenyl-2′-yloxy]-acetic acid] | 165 to 167 °C
O=C(O)COc1c(-c2ccccc2)cc([N+](=O)[O-])cc1-c1ccccc1 [Example 38, (5′-Nitro-[1,1′;3′,1″]terphenyl-2′-yloxy)-acetic acid] | 153.5 to 156 °C
COc1cc(-c2ccccc2)c(OCC(=O)O)c(-c2ccccc2)c1 [Example 39, (5′-Methoxy-[1,1′;3′,1″]terphenyl-2′-yloxy)acetic acid] | 143 to 145 °C
O=C(O)COc1c(-c2ccccc2)cc(Br)cc1-c1ccccc1 [Example 40, (5′-Bromo-[1,1′;3′,1″]terphenyl-2′-yloxy)-acetic acid] | > 50 °C (dec.)
O=C(O)COc1c(-c2ccccc2)cc(-c2ccccc2)cc1-c1ccccc1 [Example 41, [(5′-Phenyl[1,1′:3′,1″-terphenyl]-2′-yl)oxy]acetic acid] | > 68 °C (dec.)
O=C(O)COc1c(-c2ccccc2)cc2oc3ccccc3c2c1-c1ccccc1 [Example 42, (1,3-Diphenyl-dibenzofuran-2-yloxy)-acetic acid] | > 120 °C (dec.)
O=C(O)COc1c(Br)cc2oc(C(=O)c3ccccc3)cc2c1Br [Example 43, (2-Benzoyl-4,6-dibromo-benzofuran-5-yloxy)acetic acid] | 179 to 181 °C
CCCCOc1cc(-c2ccccc2)c(OCC(=O)O)c(-c2ccccc2)c1 [Example 44, (5′-Butoxy-[1,1′;3′,1″]terphenyl-2′-yloxy)acetic acid] | 92 to 94 °C
CCCCCCCCOc1cc(-c2ccccc2)c(OCC(=O)O)c(-c2ccccc2)c1 [Example 45, (5′-Octyloxy-[1,1′;3′,1″]terphenyl-2′-yloxy)acetic acid] | 82 to 84 °C
O=C(O)COc1c(-c2cccc(Cl)c2)cc(C(=O)NCCc2ccccn2)cc1-c1cccc(Cl)c1 [Example 52, [3,3″-Dichloro-5′-(2-pyridin-2-yl-ethylcarbamoyl)-[1,1′;3′,1″]terphenyl-2′-yloxy]acetic acid] | > 94 °C (dec.)
O=C(O)COc1c(-c2cccc(Cl)c2)cc(C(=O)N(CCc2ccccc2)Cc2ccccc2)cc1-c1cccc(Cl)c1 [Example 53, [5′-(Benzyl-phenethyl-carbamoyl)-3,3″-Dichloro-[1,1′;3′,1″]terphenyl-2′-yloxy]acetic acid] | > 67 °C (dec.)
O=C(O)COc1c(-c2cccc(Cl)c2)cc(C(=O)NCCCCc2ccccc2)cc1-c1cccc(Cl)c1 [Example 54, [3,3″-Dichloro-5′-(4-phenyl-butylcarbamoyl)-[1,1′;3′,1″]terphenyl-2′-yloxy]acetic acid] | > 164 °C (dec.)
O=C(O)COc1c(Br)cc(C(=O)N(CCc2ccccc2)Cc2ccccc2)cc1-c1cccc(Cl)c1 [Example 55, [5-(Benzyl-phenethyl-carbamoyl)-3-bromo-3′-chloro-biphenyl-2-yloxy]acetic acid] | > 72 °C (dec.)
O=C(O)COc1c(Br)cc(C(=O)NCCc2ccccn2)cc1-c1cccc(Cl)c1 [Example 56, [3-Bromo-3′-chloro-5-(2-pyridin-2-yl-ethylcarbamoyl)-biphenyl-2-yloxy]acetic acid] | > 102 °C (dec.)
O=C(O)COc1c(-c2cccc(Cl)c2)cc(C(=O)N(CCc2ccccc2)Cc2ccccc2)cc1-c1cccc(C(F)(F)F)c1 [Example 57, [5′-(Benzyl-phenethyl-carbamoyl)-3″-chloro-3-trifluoromethyl-[1,1′;3′,1″]terphenyl-2′-yloxy]acetic acid] | > 75 °C (dec.)
O=C(O)COc1c(-c2cccc(Cl)c2)cc(C(=O)NCCc2ccccn2)cc1-c1cccc(C(F)(F)F)c1 [Example 58, [3″-Chloro-5′-(2-pyridin-2-yl-ethylcarbamoyl)-3-trifluoromethyl-[1,1′;3′,1″]terphenyl-2′-yloxy]acetic acid] | > 92 °C (dec.)
O=C(O)COc1c(-c2cccc(Cl)c2)cc(C(=O)NCCCc2ccccc2)cc1-c1cccc(C(F)(F)F)c1 [Example 59, [3″-Chloro-5′-(3-phenyl-propylcarbamoyl)-3-trifluoromethyl-[1,1′;3′,1″]terphenyl-2′-yloxy]acetic acid] | > 106 °C (dec.)
O=C(O)COc1c(-c2cccc(Cl)c2)cc(C(=O)NCCCC2CCCC2)cc1-c1cccc(C(F)(F)F)c1 [Example 61, [3″-Chloro-5′-(3-cyclopentyl-propylcarbamoyl)-3-trifluoromethyl-[1,1′;3′,1″]-terphenyl-2′-yloxy]acetic acid] | 173 to 175 °C

Continued, values first:

melting point | SMILES
> 135 °C (dec.) | O=C(O)COc1c(Br)cc(C(=O)NCCCC2CCCC2)cc1-c1cccc(Cl)c1 [Example 62, [3-Bromo-3′-chloro-5-(3-cyclopentyl-propylcarbamoyl)-biphenyl-2-yloxy]acetic acid]
> 102 °C (dec.) | O=C(O)COc1c(-c2cccc(Cl)c2)cc(C(=O)NCCc2ccc(Br)cc2)cc1-c1cccc(C(F)(F)F)c1 [Example 63, {5′-[2-(4-Bromo-phenyl)-ethylcarbamoyl]-3″-chloro-3-trifluoromethyl-[1,1′;3′,1″]-terphenyl-2′-yloxy}acetic acid]
> 105 °C (dec.) | COc1ccc(-c2cc(C(=O)NCCc3ccccn3)cc(-c3cccc(C(F)(F)F)c3)c2OCC(=O)O)cc1 [Example 65, [4″-Methoxy-5′-(2-pyridin-2-yl-ethylcarbamoyl)-3-trifluoromethyl-[1,1′;3′,1″]-terphenyl-2′-yloxy]acetic acid]
> 114 °C (dec.) | COc1ccc(-c2cc(C(=O)NCCCC3CCCC3)cc(-c3cccc(C(F)(F)F)c3)c2OCC(=O)O)cc1 [Example 66, [5′-(3-Cyclopentyl-propylcarbamoyl)-4″-methoxy-3-trifluoromethyl-[1,1′;3′,1″]-terphenyl-2′-yloxy]acetic acid]
> 82 °C (dec.) | COc1ccc(-c2cc(C(=O)N(CCc3ccccc3)Cc3ccccc3)cc(-c3cccc(C(F)(F)F)c3)c2OCC(=O)O)cc1 [Example 67, [5′-(Benzyl-phenethyl-carbamoyl)-4″-methoxy-3-trifluoromethyl-[1,1′;3′,1″]-terphenyl-2′-yloxy]acetic acid]
> 73 °C (dec.) | COc1ccc(-c2cc(C(=O)N(CCc3ccccc3)Cc3ccccc3)cc(-c3ccccc3F)c2OCC(=O)O)cc1 [Example 68, [5′-(Benzyl-phenethyl-carbamoyl)-2-fluoro-4″-methoxy-[1,1′;3′,1″]-terphenyl-2′-yloxy]acetic acid]
> 85 °C (dec.) | O=C(O)COc1c(Br)cc(C(=O)N(CCc2ccccc2)Cc2ccccc2)cc1-c1ccccc1F [Example 69, [5-(Benzylphenethyl-carbamoyl)-3-bromo-2′-fluoro-biphenyl-2-yloxy]acetic acid]
> 102 °C (dec.) | COc1ccc(-c2cc(C(=O)NCCc3ccccn3)cc(-c3ccccc3F)c2OCC(=O)O)cc1 [Example 70, [2-Fluoro-4″-methoxy-5′-(2-pyridin-2-yl-ethylcarbamoyl)-[1,1′;3′,1″]-terphenyl-2′-yloxy]acetic acid]
> 89 °C (dec.) | COc1ccc(-c2cc(C(=O)NCCCc3ccccc3)cc(-c3ccccc3F)c2OCC(=O)O)cc1 [Example 71, [2-Fluoro-4″-methoxy-5′-(3-phenyl-propylcarbamoyl)-[1,1′;3′,1″]-terphenyl-2′-yloxy]acetic acid]
> 154 °C (dec.) | O=C(O)COc1c(Br)cc(C(=O)NCCc2ccccn2)cc1-c1ccccc1F [Example 72, [3-Bromo-2′-fluoro-5-(2-pyridin-2-yl-ethylcarbamoyl)-biphenyl-2-yloxy]acetic acid]
> 90 °C (dec.) | O=C(O)COc1c(Br)cc(C(=O)NCCCc2ccccc2)cc1-c1ccccc1F [Example 73, [3-Bromo-2′-fluoro-5-(3-phenyl-propylcarbamoyl)-biphenyl-2-yloxy]acetic acid]
> 97 °C (dec.) | COc1ccc(-c2cc(C(=O)NCCCC3CCCC3)cc(-c3ccccc3F)c2OCC(=O)O)cc1 [Example 74, [5′-(3-Cyclopentyl-propylcarbamoyl)-2-fluoro-4″-methoxy-[1,1′;3′,1″]-terphenyl-2′-yloxy]acetic acid]
> 127 °C (dec.) | O=C(O)COc1c(Br)cc(C(=O)NCCCC2CCCC2)cc1-c1ccccc1F [Example 75, [3-Bromo-5-(3-cyclopentyl-propylcarbamoyl)-2′-fluoro-biphenyl-2-yloxy]acetic acid]
> 84 °C (dec.) | COc1ccc(-c2cc(C(=O)NCCCCCCCCc3ccccc3)cc(-c3ccccc3F)c2OCC(=O)O)cc1 [Example 76, [2-Fluoro-4″-methoxy-5′-(8-phenyl-octylcarbamoyl)-[1,1′;3′,1″]-terphenyl-2′-yloxy]acetic acid]
> 79 °C (dec.) | O=C(O)COc1c(Br)cc(C(=O)NCCCCCCCCc2ccccc2)cc1-c1ccccc1F [Example 77, [3-Bromo-2′-fluoro-5-(8-phenyl-octylcarbamoyl)-biphenyl-2-yloxy]acetic acid]
> 72 °C (dec.) | COc1ccc(-c2cc(C(=O)NCCCCCCc3ccccc3)cc(-c3ccccc3F)c2OCC(=O)O)cc1 [Example 78, [2-Fluoro-4″-methoxy-5′-(6-phenyl-hexylcarbamoyl)-[1,1′;3′,1″]-terphenyl-2′-yloxy]acetic acid]
